{"source": "patent US11382328B2", "about": "“Rapid drug discovery methods for pathogen inactivation” (priority 2019, dated 2022)", "tested_on": "E. coli strain W3110", "assay": "Synergy assays: Biolog chemical sensitivity panels with Group IB metal, coefficient of drug interaction (CDI) from relative growth", "format": "cell-based", "details": "for CDI (coefficient of drug interaction), gold + biocide: Gold (μM); for CDI (coefficient of drug interaction), copper mixed with biocide: Copper (mM) section", "key": {"[1]": {"details": "Silver 0.5 μM, biocide concentration 4 of 4"}, "[2]": {"details": "Silver 1.0 μM, biocide concentration 4 of 4"}, "[3]": {"details": "Silver 5.0 μM, biocide concentration 4 of 4"}, "[4]": {"details": "1st of 3 copper concentrations (value not shown), 4th of four biocide concentrations"}, "[5]": {"details": "2nd of 3 copper concentrations (value not shown), 4th of four biocide concentrations"}, "[6]": {"details": "3rd of 3 copper concentrations (value not shown), 4th of four biocide concentrations"}, "[7]": {"details": "Gold section of Table 5, first of three gold concentrations (μM, value not given), biocide concentration 4 of 4"}, "[8]": {"details": "Gold section of Table 5, second of three gold concentrations (μM, value not given), biocide concentration 4 of 4"}, "[9]": {"details": "Gold section of Table 5, third of three gold concentrations (μM, value not given), biocide concentration 4 of 4"}, "[10]": {"details": "Silver 0.5 μM, 3rd of four biocide concentrations, E. coli"}, "[11]": {"details": "Silver 0.5 μM, 4th of four biocide concentrations, E. coli"}, "[12]": {"details": "Silver 1.0 μM, 3rd of four biocide concentrations, E. coli"}, "[13]": {"details": "Silver 1.0 μM, 4th of four biocide concentrations, E. coli"}, "[14]": {"details": "Silver 5.0 μM, 3rd of four biocide concentrations, E. coli"}, "[15]": {"details": "Silver 5.0 μM, 4th of four biocide concentrations, E. coli"}}}
{"smiles": "O=[N+]([O-])c1ccc(O)c([N+](=O)[O-])c1", "note": "[2,4-dintrophenol]", "values": [{"measurement": "CDI (coefficient of drug interaction)", "setting": "Copper (mM), 1st of 3 copper concentrations (head line not shown), biocide concentration 1 of 4, E. coli", "value": 0.87}, {"measurement": "CDI (coefficient of drug interaction)", "setting": "Copper (mM), 1st of 3 copper concentrations (head line not shown), biocide concentration 2 of 4, E. coli", "value": 0.83}, {"measurement": "CDI (coefficient of drug interaction)", "setting": "Copper (mM), 1st of 3 copper concentrations (head line not shown), biocide concentration 3 of 4, E. coli", "value": 1.10}, {"measurement": "CDI (coefficient of drug interaction)", "setting": "Copper (mM), 1st of 3 copper concentrations (head line not shown), biocide concentration 4 of 4, E. coli", "value": "Tox"}, {"measurement": "CDI (coefficient of drug interaction)", "setting": "Copper (mM), 2nd of 3 copper concentrations (head line not shown), biocide concentration 1 of 4, E. coli", "value": 0.76}, {"measurement": "CDI (coefficient of drug interaction)", "setting": "Copper (mM), 2nd of 3 copper concentrations (head line not shown), biocide concentration 2 of 4, E. coli", "value": 0.64}, {"measurement": "CDI (coefficient of drug interaction)", "setting": "Copper (mM), 2nd of 3 copper concentrations (head line not shown), biocide concentration 3 of 4, E. coli", "value": 0.99}, {"measurement": "CDI (coefficient of drug interaction)", "setting": "Copper (mM), 2nd of 3 copper concentrations (head line not shown), biocide concentration 4 of 4, E. coli", "value": "Tox"}, {"measurement": "CDI (coefficient of drug interaction)", "setting": "Copper (mM), 3rd of 3 copper concentrations (head line not shown), biocide concentration 1 of 4, E. coli", "value": 0.50}, {"measurement": "CDI (coefficient of drug interaction)", "setting": "Copper (mM), 3rd of 3 copper concentrations (head line not shown), biocide concentration 2 of 4, E. coli", "value": 0.49}, {"measurement": "CDI (coefficient of drug interaction)", "setting": "Copper (mM), 3rd of 3 copper concentrations (head line not shown), biocide concentration 3 of 4, E. coli", "value": 1.14}, {"measurement": "CDI (coefficient of drug interaction)", "setting": "Copper (mM), 3rd of 3 copper concentrations (head line not shown), biocide concentration 4 of 4, E. coli", "value": "Tox"}, {"measurement": "CDI (coefficient of drug interaction), gold + biocide", "setting": "first of 3 gold concentrations, biocide concentration 1 of 4", "value": 1.05}, {"measurement": "CDI (coefficient of drug interaction), gold + biocide", "setting": "first of 3 gold concentrations, biocide concentration 2 of 4", "value": 1.02}, {"measurement": "CDI (coefficient of drug interaction), gold + biocide", "setting": "first of 3 gold concentrations, biocide concentration 3 of 4", "value": 1.27}, {"measurement": "CDI (coefficient of drug interaction), gold + biocide", "setting": "first of 3 gold concentrations, biocide concentration 4 of 4", "value": "Tox"}, {"measurement": "CDI (coefficient of drug interaction), gold + biocide", "setting": "second of 3 gold concentrations, biocide concentration 1 of 4", "value": 1.02}, {"measurement": "CDI (coefficient of drug interaction), gold + biocide", "setting": "second of 3 gold concentrations, biocide concentration 2 of 4", "value": 0.94}, {"measurement": "CDI (coefficient of drug interaction), gold + biocide", "setting": "second of 3 gold concentrations, biocide concentration 3 of 4", "value": 1.02}, {"measurement": "CDI (coefficient of drug interaction), gold + biocide", "setting": "second of 3 gold concentrations, biocide concentration 4 of 4", "value": "Tox"}, {"measurement": "CDI (coefficient of drug interaction), gold + biocide", "setting": "third of 3 gold concentrations, biocide concentration 1 of 4", "value": 0.85}, {"measurement": "CDI (coefficient of drug interaction), gold + biocide", "setting": "third of 3 gold concentrations, biocide concentration 2 of 4", "value": 0.74}, {"measurement": "CDI (coefficient of drug interaction), gold + biocide", "setting": "third of 3 gold concentrations, biocide concentration 3 of 4", "value": 0.61}, {"measurement": "CDI (coefficient of drug interaction), gold + biocide", "setting": "third of 3 gold concentrations, biocide concentration 4 of 4", "value": "Tox"}, {"measurement": "CDI", "setting": "Silver 0.5 μM, biocide concentration 1 of 4", "value": 0.72}, {"measurement": "CDI", "setting": "Silver 0.5 μM, biocide concentration 2 of 4", "value": 0.80}, {"measurement": "CDI", "setting": "Silver 0.5 μM, biocide concentration 3 of 4", "value": 0.86}, {"measurement": "CDI", "setting": "[1]", "value": "Tox"}, {"measurement": "CDI", "setting": "Silver 1.0 μM, biocide concentration 1 of 4", "value": 0.91}, {"measurement": "CDI", "setting": "Silver 1.0 μM, biocide concentration 2 of 4", "value": 0.83}, {"measurement": "CDI", "setting": "Silver 1.0 μM, biocide concentration 3 of 4", "value": 1.02}, {"measurement": "CDI", "setting": "[2]", "value": "Tox"}, {"measurement": "CDI", "setting": "Silver 5.0 μM, biocide concentration 1 of 4", "value": 1.10}, {"measurement": "CDI", "setting": "Silver 5.0 μM, biocide concentration 2 of 4", "value": 1.04}, {"measurement": "CDI", "setting": "Silver 5.0 μM, biocide concentration 3 of 4", "value": 1.04}, {"measurement": "CDI", "setting": "[3]", "value": "Tox"}]}
{"smiles": "O=[N+]([O-])c1ncc[nH]1", "note": "[2-nitroimidazole]", "values": [{"measurement": "CDI (coefficient of drug interaction), copper mixed with biocide", "setting": "1st of 3 copper concentrations (value not shown), 3rd of four biocide concentrations", "value": "Tox"}, {"measurement": "CDI (coefficient of drug interaction), copper mixed with biocide", "setting": "[4]", "value": "Tox"}, {"measurement": "CDI (coefficient of drug interaction), copper mixed with biocide", "setting": "2nd of 3 copper concentrations (value not shown), 3rd of four biocide concentrations", "value": "Tox"}, {"measurement": "CDI (coefficient of drug interaction), copper mixed with biocide", "setting": "[5]", "value": "Tox"}, {"measurement": "CDI (coefficient of drug interaction), copper mixed with biocide", "setting": "3rd of 3 copper concentrations (value not shown), 3rd of four biocide concentrations", "value": "Tox"}, {"measurement": "CDI (coefficient of drug interaction), copper mixed with biocide", "setting": "[6]", "value": "Tox"}, {"measurement": "CDI (coefficient of drug interaction)", "setting": "Gold section of Table 5, first of three gold concentrations (μM, value not given), biocide concentration 3 of 4", "value": "Tox"}, {"measurement": "CDI (coefficient of drug interaction)", "setting": "[7]", "value": "Tox"}, {"measurement": "CDI (coefficient of drug interaction)", "setting": "Gold section of Table 5, second of three gold concentrations (μM, value not given), biocide concentration 3 of 4", "value": "Tox"}, {"measurement": "CDI (coefficient of drug interaction)", "setting": "[8]", "value": "Tox"}, {"measurement": "CDI (coefficient of drug interaction)", "setting": "Gold section of Table 5, third of three gold concentrations (μM, value not given), biocide concentration 3 of 4", "value": "Tox"}, {"measurement": "CDI (coefficient of drug interaction)", "setting": "[9]", "value": "Tox"}, {"measurement": "CDI (coefficient of drug interaction), silver + biocide", "setting": "[10]", "value": "Tox"}, {"measurement": "CDI (coefficient of drug interaction), silver + biocide", "setting": "[11]", "value": "Tox"}, {"measurement": "CDI (coefficient of drug interaction), silver + biocide", "setting": "[12]", "value": "Tox"}, {"measurement": "CDI (coefficient of drug interaction), silver + biocide", "setting": "[13]", "value": "Tox"}, {"measurement": "CDI (coefficient of drug interaction), silver + biocide", "setting": "[14]", "value": "Tox"}, {"measurement": "CDI (coefficient of drug interaction), silver + biocide", "setting": "[15]", "value": "Tox"}]}
{"smiles": "Oc1ccccc1-c1ccccc1", "note": "[2-phenylphenol]", "values": [{"measurement": "CDI (coefficient of drug interaction), copper mixed with biocide", "setting": "[4]", "value": "Tox"}, {"measurement": "CDI (coefficient of drug interaction), copper mixed with biocide", "setting": "[5]", "value": "Tox"}, {"measurement": "CDI (coefficient of drug interaction), copper mixed with biocide", "setting": "[6]", "value": "Tox"}, {"measurement": "CDI (coefficient of drug interaction)", "setting": "Gold 5 μM, biocide concentration 4 of 4, E. coli", "value": "Tox"}, {"measurement": "CDI (coefficient of drug interaction)", "setting": "Gold 25 μM, biocide concentration 4 of 4, E. coli", "value": "Tox"}, {"measurement": "CDI (coefficient of drug interaction), silver + biocide", "setting": "[10]", "value": "Tox"}, {"measurement": "CDI (coefficient of drug interaction), silver + biocide", "setting": "[11]", "value": "Tox"}, {"measurement": "CDI (coefficient of drug interaction), silver + biocide", "setting": "[12]", "value": "Tox"}, {"measurement": "CDI (coefficient of drug interaction), silver + biocide", "setting": "[13]", "value": "Tox"}, {"measurement": "CDI (coefficient of drug interaction), silver + biocide", "setting": "[14]", "value": "Tox"}, {"measurement": "CDI (coefficient of drug interaction), silver + biocide", "setting": "[15]", "value": "Tox"}, {"measurement": "CDI (coefficient of drug interaction)", "setting": "[…], biocide concentration 4 of 4, E. coli", "value": "Tox"}]}
{"smiles": "COc1ccc(CO)cc1OC", "note": "[3,4-dimethoxybenzyl alcohol]", "values": [{"measurement": "CDI (coefficient of drug interaction), copper mixed with biocide", "setting": "[4]", "value": "Tox"}, {"measurement": "CDI (coefficient of drug interaction), copper mixed with biocide", "setting": "[5]", "value": "Tox"}, {"measurement": "CDI (coefficient of drug interaction), copper mixed with biocide", "setting": "[6]", "value": "Tox"}, {"measurement": "CDI (coefficient of drug interaction)", "setting": "[7]", "value": "Tox"}, {"measurement": "CDI (coefficient of drug interaction)", "setting": "[8]", "value": "Tox"}, {"measurement": "CDI (coefficient of drug interaction)", "setting": "[9]", "value": "Tox"}, {"measurement": "CDI", "setting": "[1]", "value": "Tox"}, {"measurement": "CDI", "setting": "[2]", "value": "Tox"}, {"measurement": "CDI", "setting": "[3]", "value": "Tox"}]}
{"smiles": "Nc1nc[nH]n1", "note": "[3-Amino-1,2,4-triazole]", "values": [{"measurement": "CDI (coefficient of drug interaction), copper mixed with biocide", "setting": "[4]", "value": "Tox"}, {"measurement": "CDI (coefficient of drug interaction), copper mixed with biocide", "setting": "[6]", "value": "Tox"}, {"measurement": "CDI (coefficient of drug interaction)", "setting": "[7]", "value": "Tox"}, {"measurement": "CDI (coefficient of drug interaction)", "setting": "[8]", "value": "Tox"}, {"measurement": "CDI (coefficient of drug interaction)", "setting": "[9]", "value": "Tox"}, {"measurement": "CDI", "setting": "[1]", "value": "Tox"}, {"measurement": "CDI", "setting": "[2]", "value": "Tox"}, {"measurement": "CDI", "setting": "[3]", "value": "Tox"}]}
